Results: patent publication US8071549B2, “Compounds capable of affecting differentiation, proliferation, regeneration, plasticity and survival cells” (priority 2001, dated 2011)
Peptide text beside a SMILES is read from it.

Experiments:
hippocampal neurons = assay: Neurite outgrowth from hippocampal neurons; conditions: for neurite outgrowth in dose-response study: bell-shaped dose-response curve, 24 h
Method: Neurons were grown on Permanox plastic (Nunc, Denmark) for 24 h at a density 6250 cells/cm^2, at 37° C., 5% CO2 in Neurobasal medium containing 20 mM Hepes, 100 U/ml penicillin, 100 μg/ml streptomycin, 0.4% BSA supplemented with B27 (Gibco BRL, USA). After 24 h, cells were fixed with paraformaldehyde, stained with Coomassie Brilliant Blue R250 and analyzed.
To test this assumption, dissociated neurons from embryonic rat hippocampus were seeded on plastic and allowed to grow for 24 h in the presence of the below described compounds. Thereafter, cells were fixed with paraformaldehyde, stained with Coomassie Brilliant Blue R250 and the length of neurites was measured using a stereological approach (Rønn et al., 2000).
Peptides derived from the FG-lops of the neural cell adhesion molecules L1 and NCAM (third F3-module of L1 and first F3 module of NCAM) were prepared in different lengths, see FIG. 9a, and their effect on neurite outgrowth from primary hippocampal neurons were tested adding the various peptides in a concentration of 25 microM.

FGF-receptor 1 = molecular target: T1, FGF-receptor 1 (Homo sapiens, UniProt P11362); assay: FGF-receptor phosphorylation in transfected HEK293 cells (immunoblotting); format: cell-based; conditions: 25 μM, 20 min, HEK293 cells with His-tagged FGF-receptor 1
T1 construct: expressed in transfected cells; host or cells: HEK293, transient, PcDNA3.1(+) plasmid
Method: Cells were grown in DMEM 1965 with 10% FCS, 100 U/ml penicillin, 100 μg/ml streptomycin and 58.4 g/l Glutamax. ˜0.8*10^6 cells were plated in 60 mm plates and cultured for 24 hrs before being transfected using LipofectAMIN PLUS™ reagent kit according to manufacturers instructions (Gibco BRL) with 0.2 μg PcDNA3.1(+) plasmid encoding a his-tagged (C-terminal hexa-histidine) version of FGFR-1. Cells were grown another 24 hrs in full medium, and then shifted to starving media (DMEM 1965 with 0.5% FCS) overnight.
FGFR-1 transfected cells, incubated with 50 μg/ml NCAM derived recombinant fIII.2 or FG-loop for 20 minutes or non-stimulated, were lysed in 8M urea in PBS with 1 mM orthovanadate. The FGFR-1 was purified from total lysate via the His-tag moiety on an IMAC column. […] Samples were added SDS-PAGE sample buffer and analysed by western blotting using anti-pentahis ab (#34660 Qiagen) or anti-phosphotyrosine ab (PY20) (#11120 Transduction Laboratories). Bands were visualised by chemilumiscense and density was measured using a GeneGnome from SynGene with a 16 bit camera.
Therefore, HEK293 cells were grown for 24 h on plastic plates, and subsequently transfected with a His-tagged version of the FGF-receptor 1 and cultured for another 24 h. […] The purified FGF-receptor 1 was then analyzed by immunoblotting using antibodies either to the His-tag or phosphotyrosine. […]

[1] = system: Cerebellar granule neurons; assay: Survival assay of cerebellar granule neurons in low potassium (MTS); format: cell-based, rat; conditions: 5 mM potassium, two days; for cells surviving, high potassium set at 100%: serum-free
Method: Cerebellar granule neurons (CGN) from 7-days old rats are grown for 7-8 days in the presence of high potassium (40 mM). Cells are washed twice with serum-free culture medium (basal Eagle's medium BME) containing low potassium (5 mM) and grown in serum-free medium supplemented with FGL peptide for two days. Cultures are assayed for cell survival (D'Mello et al., 1997; Villalba et al., 1997; Skaper et al., 1998) by measuring reduction of MTS. MTS is a novel tetrazolium compound (Promega, USA), which is bioreduced by cells into a formazan that is soluble in tissue culture medium. The absorbance of the formazan at 490 nm is measured directly from 96 well assay plates without additional processing. The conversion of MTS into the aqueous soluble formazan is accomplished by dehydrogenase enzymes found in metabolically active cells. The quantity of formazan product as measured by the amount of 490 nm absorbance is directly proportional to the number of living cells in culture (Yao and Cooper, 1995);

T1 sequence (P11362 22-822): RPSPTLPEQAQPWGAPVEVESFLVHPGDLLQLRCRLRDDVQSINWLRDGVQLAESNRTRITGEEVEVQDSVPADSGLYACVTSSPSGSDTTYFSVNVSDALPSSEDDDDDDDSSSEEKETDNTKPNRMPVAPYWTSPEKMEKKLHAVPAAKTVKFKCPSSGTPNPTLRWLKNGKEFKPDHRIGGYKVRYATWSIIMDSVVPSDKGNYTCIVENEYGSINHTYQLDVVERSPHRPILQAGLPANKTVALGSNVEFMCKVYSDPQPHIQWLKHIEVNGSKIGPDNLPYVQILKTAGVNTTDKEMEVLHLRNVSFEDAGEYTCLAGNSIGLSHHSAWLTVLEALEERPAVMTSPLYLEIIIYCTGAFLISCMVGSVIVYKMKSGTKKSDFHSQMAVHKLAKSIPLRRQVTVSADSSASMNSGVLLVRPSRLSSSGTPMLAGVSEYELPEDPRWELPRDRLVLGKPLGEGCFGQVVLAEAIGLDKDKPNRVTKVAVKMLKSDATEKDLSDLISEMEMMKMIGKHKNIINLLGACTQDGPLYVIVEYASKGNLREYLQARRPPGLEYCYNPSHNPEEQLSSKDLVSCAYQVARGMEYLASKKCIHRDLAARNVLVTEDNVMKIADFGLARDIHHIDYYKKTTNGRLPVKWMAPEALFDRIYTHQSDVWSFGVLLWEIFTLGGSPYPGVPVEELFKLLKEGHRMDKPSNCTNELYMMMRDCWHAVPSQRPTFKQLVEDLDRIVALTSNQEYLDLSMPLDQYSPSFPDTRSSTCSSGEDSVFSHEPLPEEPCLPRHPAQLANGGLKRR

Molecule: AMKEDGR (listed as Homo sapiens)
- neuritogenic potency (neurite outgrowth), result in words (hippocampal neurons; 50 μM peptide): to the same extent as the similar seven amino acids from the second F3 module of NCAM

Molecule: EVAVVAENQQGASAA (listed as Homo sapiens)
- neuritogenic potency (neurite outgrowth), result in words (hippocampal neurons; 50 μM peptide): retained its neuritogenic potency
- stimulatory effect retained as compared to the entire (non-mutated) FG loop peptide (hippocampal neurons; 50 μM peptide): about 60%
- inhibition of the peptide's stimulatory effect by ATP (hippocampal neurons; 50 μM peptide, ATP 0.4 or 1 mM): could no longer be inhibited by ATP

Molecule: CC(C)[C@H](NC(=O)[C@H](Cc1ccc(O)cc1)NC(=O)[C@@H](NC(=O)[C@@H](N)CCC(=O)O)C(C)C)C(=O)N[C@H](C(=O)N[C@@H](C)C(=O)N[C@@H](CCC(=O)O)C(=O)N[C@@H](CC(N)=O)C(=O)N[C@@H](CCC(N)=O)C(=O)N[C@@H](CCC(N)=O)C(=O)NCC(=O)N[C@@H](CCCCN)C(=O)N[C@@H](CO)C(=O)N[C@@H](CCCCN)C(=O)N[C@@H](C)C(=O)O)C(C)C [FG loop peptide] (H-EVYVVAENQQGKSKA-OH)
- inhibition of induced neurite outgrowth by an antibody against the FGF-receptor (hippocampal neurons; 5 μM second F3 module or 50 μM FG loop peptide): complete inhibition
- neurite outgrowth in dose-response study (hippocampal neurons): induced neurite outgrowth
- increase of FGF-receptor phosphorylation compared to control cells (FGF-receptor 1): approx. 100%
- survival, % of the positive control ([1]; 250 microgram per ml, monomeric form): up to 90%
- survival, result in words ([1]; dose-range 2-250 microgram per ml): statistically significant survival

Molecule: Nc1ncnc2c1ncn2[C@@H]1O[C@H](COP(=O)(O)OP(=O)(O)CP(=O)(O)O)[C@@H](O)[C@H]1O [AMP-PCP, reference compound]
- inhibition of the neuritogenic effect of the F3 module (hippocampal neurons; 5 μM second F3 module, inhibitor 0.4 or 1 mM): complete inhibition
- effect on neurite outgrowth when added alone (hippocampal neurons; 0.4 or 1 mM): did not have any effect

Molecule: AENQQGK [heptamer Ala 77-Lys 83]
- stimulatory effect retained as compared to the entire (non-mutated) FG loop peptide (hippocampal neurons; 50 μM peptide): approximately 50%
- neurite outgrowth in dose-response study (hippocampal neurons): induced neurite outgrowth
- neuritogenic efficiency compared with the extended form (hippocampal neurons; dose-response study): less efficient than the extended form

Molecule: basic fibroblast growth factor: growth factor, natural ligand of the FGF-receptor, comparison in the survival assay [reference compound]
- cells surviving, high potassium set at 100% [1]: ~60%

Molecule: VAENQQGKS (listed as Homo sapiens) [nonamer Val 76-Ser 84]
- stimulatory effect retained as compared to the entire (non-mutated) FG loop peptide (hippocampal neurons; 50 μM peptide): approximately 50%

B1: brains-derived neurotrophic factor: neurotrophic factor used as comparison in the survival assay (protein, UniProt P23560 19-247, looked up)
Neurotrophic factor BDNF …: APMKEANIRGQGGLAYPGVRTHGTLESVNGPKAGSRGLTSLADTFEHVIEELLDEDQKVRPNEENNKDADLYTSRVMLSSQVPLEPPLLFLLEEYKNYLDAANMSMRVRRHSDPARRGELSVCDSISEWVTAADKKTAVDMSGGTVTVLEKVPVSKGQLKQYFYETKCNPMGYTKEGCRGIDKRHWNSQCRTTQSYVRALTMDSKKRIGWRFIRIDTSCVCTLTIKRGR
- cells surviving, high potassium set at 100% [1]: ~60%
